According to patent US7265124B2, “Cristalline and amorphous form of a triazolo (4,5-D) pyridimine compound” (AstraZeneca AB, priority 2000, dated 2007):

Legend:
Settings in all cases: qualitative statement, no test described
[1] = bioavailability (stated in words only); assay type: in vivo
[2] = target: P2T (P2YADP or P2TAC) receptor (Homo sapiens, UniProt Q9H244); test: P2T receptor antagonism (potency stated in words only)
[3] = metabolic stability (stated in words only); assay type: in vitro ADME

Chain of P2T (P2YADP or P2TAC) receptor (Q9H244 whole entry): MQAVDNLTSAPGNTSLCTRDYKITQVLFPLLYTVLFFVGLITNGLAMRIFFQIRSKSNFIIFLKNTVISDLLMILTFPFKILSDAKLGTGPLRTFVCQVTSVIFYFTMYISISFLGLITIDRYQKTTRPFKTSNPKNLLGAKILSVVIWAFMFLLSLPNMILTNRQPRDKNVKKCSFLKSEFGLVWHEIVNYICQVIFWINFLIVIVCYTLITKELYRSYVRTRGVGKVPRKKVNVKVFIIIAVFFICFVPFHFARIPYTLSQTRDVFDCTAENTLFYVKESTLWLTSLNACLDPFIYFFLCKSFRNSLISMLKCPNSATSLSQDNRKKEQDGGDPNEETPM

bioavailability [1]: surprisingly high
potency as a P2T (P2YADP or P2TAC) antagonist [2]: high potency
metabolic stability [3]: surprisingly high
Compound: CCCSc1nc(N[C@@H]2C[C@H]2c2ccc(F)c(F)c2)c2nnn([C@@H]3C[C@H](OCCO)[C@@H](O)[C@H]3O)c2n1 (relative stereo) [compound of formula (I), {1S-[1α, 2α, 3β(1S*,2R*),5β]}-3-(7-{[2-3,4-difluorophenyl)cyclopropyl]amino}-5-(propylthio)-3H-1,2,3-triazolo[4,5-d]pyrimidin-3-yl)-5-(2-hydroxyethoxy)cyclopentane-1,2-diol]
